Patent publication US10828266B2, “Topical regional neuro-affective therapy with caryophyllene” (Afgin Pharma, LLC, priority 2016, dated 2020)

Tests used:
human patients [1] = assay: Inventor's observation of onset and duration of therapeutic effect after administration of caryophyllene at the back of the neck; format: in vivo
Experimental: The inventor has observed rapid therapeutic onset of action, generally, less than 10 to 15 minutes administration of caryophyllene at the back of the neck, with maximal benefit noted well within 30 minutes. In certain embodiments, a prolonged therapeutic effect has been noted, e.g., about 4 to about 12 hours or more, depending on condition and severity of the condition being treated.

CB2 receptors = CB2 receptors (Homo sapiens, UniProt P34972); conditions: background statement; cited from earlier work
Sequence of CB2 receptors (P34972 whole entry): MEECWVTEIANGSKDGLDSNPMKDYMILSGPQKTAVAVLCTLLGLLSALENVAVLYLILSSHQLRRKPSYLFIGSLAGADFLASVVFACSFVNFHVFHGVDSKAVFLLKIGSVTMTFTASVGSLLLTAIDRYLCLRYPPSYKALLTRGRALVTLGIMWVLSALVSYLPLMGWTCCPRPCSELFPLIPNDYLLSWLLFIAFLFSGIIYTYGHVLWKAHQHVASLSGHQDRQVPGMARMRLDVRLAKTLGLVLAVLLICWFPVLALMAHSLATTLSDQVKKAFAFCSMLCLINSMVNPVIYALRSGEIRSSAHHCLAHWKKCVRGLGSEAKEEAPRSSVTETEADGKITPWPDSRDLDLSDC

[2] = biological target: cannabinoid receptor type-1 (CB1) (Homo sapiens, UniProt P21554); conditions: centrally expressed receptor; background statement; cited from earlier work
Sequence of cannabinoid receptor type-1 (CB1) (P21554 whole entry): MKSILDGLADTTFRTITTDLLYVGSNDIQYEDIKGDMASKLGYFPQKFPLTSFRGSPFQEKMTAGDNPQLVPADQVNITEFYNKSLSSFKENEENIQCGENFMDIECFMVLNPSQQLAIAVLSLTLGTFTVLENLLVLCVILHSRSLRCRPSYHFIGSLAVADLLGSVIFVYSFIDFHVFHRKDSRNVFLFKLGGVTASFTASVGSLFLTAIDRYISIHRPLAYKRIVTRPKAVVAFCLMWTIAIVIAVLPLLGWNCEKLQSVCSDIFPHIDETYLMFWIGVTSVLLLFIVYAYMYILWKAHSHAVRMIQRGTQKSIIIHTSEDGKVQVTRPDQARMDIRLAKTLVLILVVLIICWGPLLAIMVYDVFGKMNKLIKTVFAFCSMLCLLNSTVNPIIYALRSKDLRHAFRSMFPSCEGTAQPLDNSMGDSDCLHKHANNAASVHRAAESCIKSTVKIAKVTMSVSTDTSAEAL

human patients [3] = assay: Topical Cari-Derm (3% caryophyllene) on the back of the neck of human patients, case series of Table 1; format: in vivo
Experimental: (§1) The following patients were treated with a topical caryophyllene formulation (referred to in Table 1 as “Cari-Derm”, which is a topical 3% caryophyllene formulation) administered on the back of the neck on human patients, as more specifically described below in Table 1. The 3% Cari-Derm formulation contained approximately 30 mg of caryophyllene in a unit dose (1 gram).

human patients [4] = assay: Response to earlier or current medication as given in the patient history of Table 1; format: in vivo; conditions: patient 11, autism and seizures with poor vision and focus
Experimental: as §1

C=C1CC/C=C(\C)CC[C@@H]2[C@@H]1CC2(C)C (relative stereo) [caryophyllene, trans-(1R,9S)-8-Methylene-4,11,11-trimethylbicyclo[7.2.0]undec-4-ene]
maximal benefit noted (human patients [1]): ≤ 30 min
therapeutic onset of action (human patients [1]; generally): 10 to 15 min
action on CB2 receptors (CB2 receptors): acts on CB2 receptors
binding to cannabinoid receptor type-1 (CB1) [2]: does not bind

CN1CCc2cccc3c2[C@H]1Cc1ccc(O)c(O)c1-3 [Apomorphine, apomorphine]
neck range of motion and pain on adding topical apomorphine (human patients [3]; patient 14, torticollis with neck pain, apomorphine added after Cari-Derm): improved further.
tremors, focus, talkativeness with added Apomorphine (human patients [3]; patient 20, Parkinson's disease, Apomorphine 5 mg after Cari-Derm): Cari-Derm; further improved
focus, spontaneity, gait after additional Apomorphine (human patients [3]; patient 23, poor focus, impulsivity, gait problems from Parkinson's, additional 5 mg Apomorphine after Cari-Derm): further improvement noted.

C=C(C)[C@@H]1CCC(C)=C[C@H]1c1c(O)cc(CCCCC)cc1O [CBD, cannabidiol]
patient's comparison of CBD with Cari-Derm for headache (human patients [3]; patient 35, chronic headaches and ADHD, uses topical CBD cream): CBD worked better.

COC(=O)C(c1ccccc1)C1CCCCN1 (stereo not shown) [Ritalin, methylphenidate]
agitation on earlier medication (human patients [4]): benefit; increased agitation

amphetamine, dextroamphetamine mixed salts [Adderall]
agitation on earlier medication (human patients [4]): benefit; increased agitation
